Legend:
Assay in all cases: Cell proliferation assay
Colon-26 = assay type: cell-based, Mus musculus; conditions: Colon-26, colorectal carcinoma, 72 hours
Protocol: (§1) To quantify cell proliferation, either the nuclei of live cells were counted following staining with 4’,6-diamidino-2-phenylindole (DAPI; Sigma-Aldrich, Burlington, MA, USA), or metabolically active cells were detected using a CellTiter-Glo assay (Promega Corporation, Madison, WI, USA). Cells from a range of human and mammalian tumor cell lines (American Type Culture Collection, Manassas, VA, USA) were seeded at 4000 cells per well in 100 μL of culture medium in a 96-well plate and incubated overnight at 37°C with 5% CO2. […] In the DAPI staining method, cells were washed using 1× phosphate-buffered saline (PBS; Gibco Thermo Fisher Scientific, Waltham, MA, USA), fixed with 4% formaldehyde, permeabilized with 0.2% Triton X-100 (Sigma-Aldrich), washed again, and stained with 1 μg/mL DAPI to visualize cell nuclei. Cells were washed with 1× PBS three times, and 100 μL 1× PBS was added to each well. Plates were scanned using an IN Cell Analyzer 2200 (GE Healthcare Life Sciences, Chicago, IL, USA) and the number of cells per well was recorded. In the CellTiter-Glo assay, 60 μL of CellTiter-Glo luminescent solution was added to each well after incubation with the test compounds, and the assay plate was scanned using a Tecan Infinite M1000 PRO microplate reader (Tecan Group AG, Männedorf, Switzerland) to record luminescent signals.

SW620 = assay type: cell-based, Homo sapiens; conditions: SW620, colon carcinoma, 72 hours
Protocol: as §1

MHCC97 = assay type: cell-based, Homo sapiens; conditions: MHCC97, liver, hepatocellular carcinoma, 72 hours
Protocol: as §1

T98G = assay type: cell-based, Homo sapiens; conditions: brain, glioblastoma, 72 hours
Protocol: as §1

DLD-2 = assay type: cell-based, Homo sapiens; conditions: DLD-2, colorectal carcinoma, 72 hours
Protocol: as §1

JHH-7 = assay type: cell-based, Homo sapiens; conditions: JHH-7, liver, hepatocellular carcinoma, 72 hours
Protocol: as §1

NCI-H292 = assay type: cell-based, Homo sapiens; conditions: NCI-H292, lung, mucoepidermoid pulmonary carcinoma, 72 hours
Protocol: as §1

NCI-H441 = assay type: cell-based, Homo sapiens; conditions: NCI-H441, lung carcinoma, 72 hours
Protocol: as §1

NCI-H358 = assay type: cell-based, Homo sapiens; conditions: NCI-H358, lung, NSCLC, 72 hours
Protocol: as §1

NCI-H1155 = assay type: cell-based, Homo sapiens; conditions: NCI-H1155, lung, NSCLC, 72 hours
Protocol: as §1

BEL7405 = assay type: cell-based, Homo sapiens; conditions: BEL7405, liver, hepatocellular carcinoma, 72 hours
Protocol: as §1

HCCC9810 = assay type: cell-based, Homo sapiens; conditions: HCCC9810, liver, hepatocellular carcinoma, 72 hours
Protocol: as §1

MHCC97H = assay type: cell-based, Homo sapiens; conditions: liver, hepatocellular carcinoma, 72 hours
Protocol: as §1

NCI-H460 = assay type: cell-based, Homo sapiens; conditions: NCI-H460, lung carcinoma, 72 hours
Protocol: as §1

NCI-H2228 = assay type: cell-based, Homo sapiens; conditions: NCI-H2228, lung, NSCLC, 72 hours
Protocol: as §1

T47D = assay type: cell-based, Homo sapiens; conditions: breast carcinoma, 72 hours
Protocol: as §1

COLO 205 = assay type: cell-based, Homo sapiens; conditions: COLO 205, colon carcinoma, 72 hours
Protocol: as §1

MCF-10A = assay type: cell-based, Homo sapiens; conditions: breast, non-malignant mammary epithelial, 72 hours
Protocol: as §1

SK-N-BE(2) = assay type: cell-based, Homo sapiens; conditions: neuroblastoma, 72 hours
Protocol: as §1

SNU-182 = assay type: cell-based, Homo sapiens; conditions: SNU-182, liver, hepatocellular carcinoma, 72 hours
Protocol: as §1

SNU-739 = assay type: cell-based, Homo sapiens; conditions: SNU-739, liver, hepatocellular carcinoma, 72 hours
Protocol: as §1

LoVo = assay type: cell-based, Homo sapiens; conditions: colorectal carcinoma, 72 hours
Protocol: as §1

SW1088 = assay type: cell-based, Homo sapiens; conditions: SW1088, brain, grade II astrocytoma, 72 hours
Protocol: as §1

Daoy = assay type: cell-based, Homo sapiens; conditions: brain, desmoplastic cerebellar medulloblastoma, 72 hours
Protocol: as §1

SNU-475 = assay type: cell-based, Homo sapiens; conditions: SNU-475, liver, hepatocellular carcinoma, 72 hours
Protocol: as §1

U87-MG = assay type: cell-based, Homo sapiens; conditions: brain, glioblastoma, 72 hours
Protocol: as §1

SK-MES-1 = assay type: cell-based, Homo sapiens; conditions: SK-MES-1, lung carcinoma, 72 hours
Protocol: as §1

SNU-387 = assay type: cell-based, Homo sapiens; conditions: SNU-387, liver, hepatocellular carcinoma, 72 hours
Protocol: as §1

HT29 = assay type: cell-based, Homo sapiens; conditions: HT29, colon carcinoma, 72 hours
Protocol: as §1

NCI-H1703 = assay type: cell-based, Homo sapiens; conditions: NCI-H1703, lung, NSCLC, 72 hours
Protocol: as §1

U118-MG = assay type: cell-based, Homo sapiens; conditions: brain, glioblastoma, 72 hours
Protocol: as §1

LN229 = assay type: cell-based, Homo sapiens; conditions: LN229, brain, glioblastoma, 72 hours
Protocol: as §1

MDA-MB-231 = assay type: cell-based, Homo sapiens; conditions: MDA-MB-231, breast carcinoma, 72 hours
Protocol: as §1

HCT8 = assay type: cell-based, Homo sapiens; conditions: HCT8, colorectal carcinoma, 72 hours
Protocol: as §1

CC1=Nc2c(F)cc(-c3nc(Nc4ccc(C5CCN(C)CC5)cn4)ncc3F)cc2C12CCCC2 [GLR2007]
IC50 (Colon-26): 2120 nM
IC50 (SW620): 10 nM
IC50 (MHCC97): 353 nM
IC50 (T98G): 110 nM
IC50 (DLD-2): 33 nM
IC50 (JHH-7): 578 nM
IC50 (NCI-H292): 73 nM
IC50 (NCI-H441): 7 nM
IC50 (NCI-H358): 17 nM
IC50 (NCI-H1155): 1820 nM
IC50 (BEL7405): 1150 nM
IC50 (HCCC9810): 30 nM
IC50 (MHCC97H): 66 nM
IC50 (NCI-H460): 235 nM
IC50 (NCI-H2228): 2050 nM
IC50 (T47D): 1 nM
IC50 (COLO 205): 194 nM
IC50 (MCF-10A): 2730 nM
IC50 (SK-N-BE(2); brain): 130 nM
IC50 (SNU-182): 2240 nM
IC50 (SNU-739): 100 nM
IC50 (LoVo): 13 nM
IC50 (SW1088): 143 nM
IC50 (Daoy): 3960 nM
IC50 (SNU-475): 85 nM
IC50 (U87-MG): 16 nM
IC50 (SK-MES-1): 67 nM
IC50 (SNU-387): 68 nM
IC50 (HT29): 601 nM
IC50 (NCI-H1703): 3 nM
IC50 (U118-MG): 23 nM
IC50 (LN229): 17 nM
IC50 (MDA-MB-231): 44 nM
IC50 (HCT8): 81 nM

CCN1CCN(Cc2ccc(Nc3ncc(F)c(-c4cc(F)c5nc(C)n(C(C)C)c5c4)n3)nc2)CC1 [Abemaciclib, abemaciclib, reference compound]
IC50 (Colon-26; Mus musculus): > 10000 nM
IC50 (SW620; Homo sapiens, SW-620): 10 nM
IC50 (MHCC97; Homo sapiens): 1100 nM
IC50 (T98G; Homo sapiens): 168 nM
IC50 (DLD-2; Homo sapiens, DLD2): 237 nM
IC50 (JHH-7; Homo sapiens, JHH7): 1170 nM
IC50 (NCI-H292; Homo sapiens): 149 nM
IC50 (NCI-H441; Homo sapiens): 40 nM
IC50 (NCI-H358; Homo sapiens): 44 nM
IC50 (NCI-H1155; Homo sapiens): 2410 nM
IC50 (BEL7405; Homo sapiens): 2140 nM
IC50 (HCCC9810; Homo sapiens): 71 nM
IC50 (MHCC97H; Homo sapiens): 137 nM
IC50 (NCI-H460; Homo sapiens): 654 nM
IC50 (NCI-H2228; Homo sapiens): 2070 nM
IC50 (T47D; Homo sapiens): 12 nM
IC50 (COLO 205; Homo sapiens): 432 nM
IC50 (MCF-10A; Homo sapiens): 1770 nM
IC50 (SK-N-BE(2); Homo sapiens, SKNBE2, brain): 133 nM
IC50 (SNU-182; Homo sapiens): > 10000 nM
IC50 (SNU-739; Homo sapiens): 383 nM
IC50 (LoVo; Homo sapiens): 25 nM
IC50 (SW1088; Homo sapiens): 471 nM
IC50 (Daoy; Homo sapiens): > 10000 nM
IC50 (SNU-475; Homo sapiens): 195 nM
IC50 (U87-MG; Homo sapiens, U-87 MG): 106 nM
IC50 (SK-MES-1; Homo sapiens): 148 nM
IC50 (SNU-387; Homo sapiens): 193 nM
IC50 (HT29; Homo sapiens, HT-29): 1840 nM
IC50 (NCI-H1703; Homo sapiens): 93 nM
IC50 (U118-MG; Homo sapiens, U-118-MG): 86 nM
IC50 (LN229; Homo sapiens, LN-229): 35 nM
IC50 (MDA-MB-231; Homo sapiens): 48 nM
IC50 (HCT8; Homo sapiens, HCT-8): 384 nM

From PMC9403987 (Frontiers in Oncology, 2022)
